# According to US20050244413A1, “Compositions and methods for treating cancer using cytotoxic CD44 antibody immunoconjugates and chemotherapeutic agents” (priority 2002, published 2005):
# Several values for one entry are separate records, joined by “and”; a condition that tells them apart may be missing. Identical values can stand only once.
# Columns and labels:
# [1] = system: antigen-negative cell line A549; assay: In vitro cytotoxicity, MTS/PMS cell proliferation assay, A549; format: cell-based; settings: A549 cells, highest concentration of BIWI 1 tested (5×1 0-7 M), 4 days
# Experimental: For determination of viable cells the Cell Titer 96® AQueous non-radioactive cell proliferation assay (Promega) was used. Five thousand cells per well were seeded into 96-well plates in 90 μl medium without phenole red. Cells were allowed to settle down for 1 to 3 h and then serial dilutions of the immunoconjugate in 10 μl PBS were added. Cells without immunoconjugate served as negative control. Cells were incubated for 4 days at 37° C. in a humified 5% CO2 atmosphere and then 20 μl MTS/PMS were added according to the manufacturer's recommendation. After additional 1 to 4 h incubation at 37° C. the absorbance at 490 nm was recorded using an ELISA plate reader. For each cell line triplicates were analyzed. The percentage of the surviving cell fraction and the IC50 value were calculated using the GraphPad Prism® (Version 3.0) software.
# The in vitro cytotoxicity of BIWI 1 was evaluated using the antigen-positive cell lines A431 and FaDu, and the antigen-negative cell line […]. Cells were exposed to different concentrations of BIWI 1 for 4 days, then stained with MTS/PMS and assayed on an ELISA plate reader. The surviving fractions of cells were then calculated using the GraphPad Prism® software package.
# [2] = system: FaDu tumors; assay: BIWI 1 monotherapy in FaDu xenografted nude mice; format: in vivo, mouse; settings: five consecutive days
# Experimental: In vivo anti-tumor efficacy of BIWI 1 was tested in three nude mouse xenograft models applying antigen-positive human tumors: A431 (ATCC # CRL 1555; epidermoid carcinoma of the vulva), FaDu (ATCC # HTB 43; squamous cell carcinoma of the pharynx), and MDA-MB 453 (ATCC # HTB-131; breast carcinoma). The cells were received from ATCC and cultured in RPMI1640 medium containing 10% fetal calf serum and supplements. 1×10^6 tumors cells were transplanted subcutaneously into the right flank of 6 week old female NMRI-nu/nu mice. Tumor growth was monitored by measuring tumor size. A tumor response was rated as complete response when the tumor completely disappeared at any time after start of treatment. The response was rated as partial response when the tumor volume decreased after treatment but thereafter started regrowing. The tolerability of the treatment was monitored by measuring mouse weight during the observation period.
# Mice were randomised into the following treatment groups (treatment/initial mean tumor volume/tumor volume range/number of mice): • Group 1: Control (PBS)/142±82 mm^3/34-268 mm^3 /8 mice. • Group 2: BIWA 4 (21 mg/kg/d)/134±86 mm^3/42-268 mm^3/6 mice. • Group 3: BIWI 1 (2.1 mg/kg/d) 149±96 mm^3/50-268 mm^3/6 mice. • Group 4: BIWI 1 (7 mg/kg/d)/132±97 mm^3 42-268 mm^3/6 mice. • Group 5: BIWI 1 (21 mg/kg/d)/129±74 mm^3/50-231 mm^3/6 mice.
# Groups of 6 mice were treated with 2.1 mg/kg/d BIWI 1, 7 mg/kg/d BIWI 1, 21 mg/kg/d BIWI 1, and 21 mg/kg/d control antibody, respectively. Treatment consisted of i.v. injections of BIWI 1 given on five consecutive days, starting at day 1. […] The remaining 2 tumors grew similar to untreated control tumors.
# [3] = system: mouse CD44v6; assay: Cross-reactivity with mouse CD44v6; format: binding
# [4] = system: FaDuDD tumors; assay: BIWI 1 combination with docetaxel in nude mice xenografted with FaDuDD tumors; format: in vivo, mouse
# Experimental: The antibody solution was injected into the tail vein with an injection volume of 200 μl for a 25 g mouse. In the control groups without BIWI 1 treatment animals were injected i.v. with PBS. […] The solution was injected into the tail vein with an injection volume of 200 μl for a 25 g mouse. […] The solution was injected into the tail vein with an injection volume of 200 μl for a 25 g mouse.
# Tumor sizes and body weights were recorded 2-3 times per week. Tumor sizes were measured with a calliper (length and width) and the volume was calculated according to the following formula: volume (length)×(width)^2×([…]). The tolerability of the treatment was monitored by measuring mouse weight during the whole observation period. […] For calculation of the mean tumor volumes per group, the last values of tumor size for individual animals were carried forward in case that these animals had to be sacrificed due to large tumor burden before the whole group was terminated. In addition to the absolute tumor volume in mm^3, the relative tumor volumes (RTV) were calculated as follows:
# RTV=(tumor volume at day x)/(tumor volume at start of treatment)×100 For the evaluation of treatment efficacy the following parameters were calculated: • T/C (%)=(mean RTV of treated group)/(mean RTV of control group)×100 • T4T (tumor quadrupling time)=time until the mean RTV reaches 400% • GDF4 (growth delay factor)=T4T treated/T4T control.
# In addition, for some experiments, the mean time for tumors to reach 8 times (T8T) their initial sizes were also calculated. The growth delay factor (GDF8) was then calculated accordingly. Percentages of mean relative tumor volumes of treated versus control groups (T/C) were calculated on the days indicated. For statistical evaluation of combination therapies exact Wilcoxon tests were used. Tolerability was assessed by monitoring body weight changes.
# To assess the efficacy of BIWI 1 in combination with the taxane docetaxel (Taxotere), non-curative doses of both drugs were tested as single agents or in combination in nude mice xenografted with FADuDD tumors. In pilot experiments a dose of 3 mg/kg docetaxel (q7dx4) was determined to be non-curative in this model. BIWI 1 was used at the non-curative dose of 200 μg/kg DM 1 and at a somewhat higher dose (300 μg/kg DM1).
# The effect was somewhat more pronounced in the two BIWI 1 monotherapy treatment groups with T/C 41-30% and GDF4: 2.8-4.4. Complete tumor regression could be observed in 1/8 cases with the higher BIWI 1 dose. […] Treatment was well tolerated in all groups, except for a slight unexplained weight loss (approx. −5%) in the docetaxel monotherapy group.
# [5] = system: MDA-MB-453 tumors; assay: BIWI 1 combination with doxorubicin in nude mice xenografted with MDA-MB-453 tumors; format: in vivo, mouse
# Experimental: Similar experiments as outlined under Section 2.6 were undertaken in a human breast carcinoma xenograft model. Experiments were performed using nude mice xenografted subcutaneously with the human breast carcinoma cell line MDA-MBA53. […] The efficacy of these combinations was compared to those of the respective monotherapies by i) analysing the tumor volumes over time and ii) by determining the time for tumors to reach a certain size (tumor growth delay).
# The dilutions were prepared freshly for each application or stored at +4° C. during the whole treatment period. […] Doxorubicin (Doxorubicin “Ebewe”®, 2 mg/ml) was diluted in PBS. 200 μl of solutions with different concentrations were injected into the tail vein. Docetaxel (Taxotere®, Aventis, 10 mg/ml) was diluted in 0.9% NaCl. 200 μl of solutions with different concentrations were injected into the tail vein.
# The xenograft model was handled slightly different as outlined under Section 2.1. Briefly, 1×10^7 MDA-MB-453 cells (ATCC No. HTB-131) were injected into the mammary fat pad of female NMRI nu/nu mice. After reaching a volume of approximately 1000 mm^3 tumors were excised, cut into 4×4 mm pieces and passaged further subcutaneously. Tumor fragments were cryoconserved in 90% RPMI 1640/10% dimethylsulfoxide (slow freezing process down to −80° C., storage in liquid nitrogen). For further passaging, frozen tumor fragments were thawed, washed 3 times in PBS and implanted subcutaneously into the right and left flanks of a 4-5 female NMRI nu/nu mice. Tumors of these mice were then used to prepare the animals for a therapy experiment. Tumors were excised with a size of approximately 10 mm in diameter, cut into 2×2 mm pieces and implanted subcutaneously into the right flank of 6-8 week old female NMRI nu/nu mice. Approximately twice as many animals as needed for the experiment were prepared. When tumors reached a size of 5-10 mm in diameter (10-14 days after implantation), animals were randomised and treatments were started. Animals were obtained from Harlan (Germany) or M&B (Denmark). Tumor sizes and body weights were recorded as described in Section 2.7.
# [6] = BIWI 1 200 μg/kg DM1 i.v. q7dx4
# [7] = BIWI 1 300 μg/kg DM1 i.v. q7dx4
substance,measurement,setting,value
BIWI 1,surviving fraction,[1],50%
same,tumor volume doubling time,[2]; 2.1 mg/kg/d BIWI 1 i.v.,approximately 5 days
same,complete responses,[2]; 7 mg/kg/d BIWI 1 i.v.,1/6
same,partial responses,[2]; 7 mg/kg/d BIWI 1 i.v.,3/6
same,day on which tumors disappeared,[2]; 21 mg/kg/d BIWI 1 i.v.,~24 days
same,tumor regrowth until end of observation period (day 107),[2]; 21 mg/kg/d BIWI 1 i.v.,No tumor regrowth
same,tumor response,[2]; 21 mg/kg/d BIWI 1 i.v.,all tumors responded completely
same,cross-reaction with mouse CD44v6,[3],does not cross-react
same,GDF4,[4]; [6],2.8
same,T4T,[4]; [6],20.1 days
same,T/C (d 16),[4]; [6],41%
same,complete tumor regression,[4]; BIWI 1 300 μg/kg DM1 (higher dose) q7dx4,1/8
same,GDF4,[4]; [7],4.4
same,T4T,[4]; [7],31.1 days
same,T/C (d 16),[4]; [7],30%
same,GDF4,[5]; BIWI 1 50 μg/kg DM1 i.v. q7dx4,1.0
same,T/C (d13),[5]; BIWI 1 50 μg/kg DM1 i.v. q7dx4,68%
same,GDF4,[5]; BIWI 1 75 μg/kg DM1 i.v. q7dx4,1.6
same,T4T,[5]; BIWI 1 75 μg/kg DM1 i.v. q7dx4,13 days and 13.0 days
same,T/C (d13),[5]; BIWI 1 75 μg/kg DM1 i.v. q7dx4,59%
same,tumor bearing animals cured,"[5]; BIWI 1 100 μg/kg DM1, q7dx4",4/6
